Measured values from doi:10.1101/2024.02.12.580006v1 (biorxiv, 2024).
Each block holds one molecule with its values, some of them ahead of it.

Columns and labels:
SeHas = target: T1, SeHas (Streptococcus dysgalactiae, UniProt O50201); assay: UDP-Glo luminescence, product inhibition, exponential fit; type: biochemical
T1 sequence (O50201 1-417): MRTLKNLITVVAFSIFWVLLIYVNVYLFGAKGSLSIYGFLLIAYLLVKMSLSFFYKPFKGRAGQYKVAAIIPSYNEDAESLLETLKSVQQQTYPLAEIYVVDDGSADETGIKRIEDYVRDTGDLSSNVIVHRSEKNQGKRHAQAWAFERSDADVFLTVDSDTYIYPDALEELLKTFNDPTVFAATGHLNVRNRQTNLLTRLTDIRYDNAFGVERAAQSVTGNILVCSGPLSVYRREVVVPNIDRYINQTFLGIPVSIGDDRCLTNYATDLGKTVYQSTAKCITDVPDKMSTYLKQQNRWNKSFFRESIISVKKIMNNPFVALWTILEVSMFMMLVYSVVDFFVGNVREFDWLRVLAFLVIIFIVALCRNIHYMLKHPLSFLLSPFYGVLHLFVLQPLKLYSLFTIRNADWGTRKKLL

PttCesA8 = target: T2, PttCesA8 (Populus tremula x Populus tremuloides, UniProt Q6J8X0); assay: as above; type: biochemical
T2 sequence (Q6J8X0 1-978): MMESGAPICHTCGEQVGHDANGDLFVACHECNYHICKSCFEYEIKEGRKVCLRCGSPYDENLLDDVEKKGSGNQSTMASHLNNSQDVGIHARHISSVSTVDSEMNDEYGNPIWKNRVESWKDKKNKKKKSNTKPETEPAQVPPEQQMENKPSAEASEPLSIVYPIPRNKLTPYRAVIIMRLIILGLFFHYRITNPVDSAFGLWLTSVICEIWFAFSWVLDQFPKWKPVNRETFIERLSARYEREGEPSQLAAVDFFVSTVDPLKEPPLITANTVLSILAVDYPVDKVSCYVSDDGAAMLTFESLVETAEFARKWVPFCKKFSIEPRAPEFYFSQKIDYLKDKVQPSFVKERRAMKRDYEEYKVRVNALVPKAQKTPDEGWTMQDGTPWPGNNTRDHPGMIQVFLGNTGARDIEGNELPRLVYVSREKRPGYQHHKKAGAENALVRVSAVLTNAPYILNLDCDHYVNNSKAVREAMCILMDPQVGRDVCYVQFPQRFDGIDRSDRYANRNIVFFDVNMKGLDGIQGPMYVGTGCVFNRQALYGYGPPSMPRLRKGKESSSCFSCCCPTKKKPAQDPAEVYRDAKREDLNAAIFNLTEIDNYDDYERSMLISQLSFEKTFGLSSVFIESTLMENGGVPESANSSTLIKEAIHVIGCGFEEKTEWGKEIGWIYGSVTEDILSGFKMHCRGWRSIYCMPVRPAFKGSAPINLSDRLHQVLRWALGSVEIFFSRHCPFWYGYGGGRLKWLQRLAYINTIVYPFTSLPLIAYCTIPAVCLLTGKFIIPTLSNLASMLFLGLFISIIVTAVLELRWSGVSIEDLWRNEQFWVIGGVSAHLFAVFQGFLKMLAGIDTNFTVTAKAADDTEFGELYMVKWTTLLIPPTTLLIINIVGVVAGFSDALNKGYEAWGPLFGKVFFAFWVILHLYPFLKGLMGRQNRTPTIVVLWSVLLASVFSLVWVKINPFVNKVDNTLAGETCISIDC

purified protein = substrate: O=c1ccn([C@@H]2O[C@H](CO[P@@](=O)(O)O[P@@](=O)(O)O[C@H]3O[C@H](CO)[C@@H](O)[C@H](O)[C@H]3O)[C@@H](O)[C@H]2O)c(=O)[nH]1; assay: purified protein; conditions: 20 mM MnCl2, 37 °C, 30 min, proteoliposomes

- Ki (SeHas): 24.4 µM
- Ki (PttCesA8): 10.1 µM
Molecule: O=c1ccn([C@@H]2O[C@H](COP(=O)(O)OP(=O)(O)O)[C@@H](O)[C@H]2O)c(=O)[nH]1 [UDP]

B1: PttCesA8 (Populus tremula x Populus tremuloides) (protein)
chain: T2 sequence (Q6J8X0 1-978)
- Km (purified protein): 295.8 µM
- kcat (purified protein): 21.57 s⁻¹
